In ChEMBL document CHEMBL1134092, “alpha-Keto heterocycle inhibitors of fatty acid amide hydrolase: carbonyl group modification and alpha-substitution” (Bioorg Med Chem Lett, 2001):

Molecular target: T1, Fatty-acid amide hydrolase 1 (Rattus norvegicus, UniProt P97612)
T1 sequence (P97612 whole entry): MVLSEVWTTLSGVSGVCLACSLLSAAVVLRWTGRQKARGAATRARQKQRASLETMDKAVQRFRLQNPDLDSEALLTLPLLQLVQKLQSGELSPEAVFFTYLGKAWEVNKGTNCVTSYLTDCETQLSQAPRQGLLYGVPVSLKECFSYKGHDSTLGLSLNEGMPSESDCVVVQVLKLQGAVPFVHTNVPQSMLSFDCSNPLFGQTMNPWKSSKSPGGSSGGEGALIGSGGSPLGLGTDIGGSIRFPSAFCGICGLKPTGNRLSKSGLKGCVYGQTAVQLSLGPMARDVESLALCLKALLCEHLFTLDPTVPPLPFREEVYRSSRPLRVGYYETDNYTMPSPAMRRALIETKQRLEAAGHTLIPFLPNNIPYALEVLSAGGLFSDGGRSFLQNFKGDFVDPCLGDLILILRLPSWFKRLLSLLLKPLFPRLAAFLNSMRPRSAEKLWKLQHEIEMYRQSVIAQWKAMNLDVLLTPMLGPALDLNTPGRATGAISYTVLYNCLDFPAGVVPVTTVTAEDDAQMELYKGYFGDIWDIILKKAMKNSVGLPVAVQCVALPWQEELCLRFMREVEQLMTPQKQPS
Experiment: Inhibitory activity against fatty acid amide hydrolase (FAAH)

Ki [nM] | SMILES
2.3 | CCCCCCCC/C=C\CCCCCCCC(=O)c1nc2ncccc2o1
150 | CCCCCCCC/C=C\CCCCCCCC(=O)c1nc2ccccc2o1
100 | CCCCCCCC/C=C\CCCCCCCC(=O)c1ncco1
